Key:
Type in all cases: biochemical
PI3K δ = PI3K δ (Homo sapiens (Human), UniProt O00329); assay: PI 3-Kinase (human) HTRF assay, p110δ/p85α
PI3K β = PI3K β (Homo sapiens (Human), UniProt P42338); assay: PI 3-Kinase (human) HTRF assay, p110β/p85α
Method: An exemplary system is PI 3-Kinase (human) HTRF™ Assay from Upstate. […] Briefly, the assay is a time resolved FRET assay that indirectly measures PIP3 product formed by the activity of a PI3-K. The kinase reaction is performed in a microtitre plate (e.g., a 384 well microtitre plate). The total reaction volume is approximately 20 ul per well. In the first step, each well receives 2 ul of test compound in 20% dimethylsulphoxide resulting in a 2% DMSO final concentration. Next, approximately 14.5 ul of a kinase/PIP2 mixture (diluted in 1× reaction buffer) is added per well for a final concentration of 0.25-0.3 ug/ml kinase and 10 μM PIP2. The plate is sealed and incubated for 15 minutes at room temperature. To start the reaction, 3.5 ul of ATP (diluted in 1× reaction buffer) is added per well for a final concentration of 10 μM ATP. The plate is sealed and incubated for 1 hour at room temperature. The reaction is stopped by adding 5 ul of Stop Solution per well and then 5 ul of Detection Mix is added per well. The plate is sealed, incubated for 1 hour at room temperature, and then read on an appropriate plate reader. Data is analyzed and IC50s are generated using GraphPad Prism 5. For PI3K α, β, δ, and γ, the nM concentration of inhibitor to reach IC50 is provided.

PI3K α = PI3K α (Homo sapiens (Human), UniProt P42336); assay: PI 3-Kinase (human) HTRF assay, p110α/p85α
PI3K γ = PI3K γ (Homo sapiens (Human), UniProt P48736); assay: PI 3-Kinase (human) HTRF assay, p110γ; conditions: read-out: PI3K γ IC50
mTORC = mTORC (Homo sapiens (Human), UniProt P42345); assay: mTOR inhibition assay (radiometric or LanthaScreen TR-FRET)
Sequence of mTORC (P42345 1360-2549): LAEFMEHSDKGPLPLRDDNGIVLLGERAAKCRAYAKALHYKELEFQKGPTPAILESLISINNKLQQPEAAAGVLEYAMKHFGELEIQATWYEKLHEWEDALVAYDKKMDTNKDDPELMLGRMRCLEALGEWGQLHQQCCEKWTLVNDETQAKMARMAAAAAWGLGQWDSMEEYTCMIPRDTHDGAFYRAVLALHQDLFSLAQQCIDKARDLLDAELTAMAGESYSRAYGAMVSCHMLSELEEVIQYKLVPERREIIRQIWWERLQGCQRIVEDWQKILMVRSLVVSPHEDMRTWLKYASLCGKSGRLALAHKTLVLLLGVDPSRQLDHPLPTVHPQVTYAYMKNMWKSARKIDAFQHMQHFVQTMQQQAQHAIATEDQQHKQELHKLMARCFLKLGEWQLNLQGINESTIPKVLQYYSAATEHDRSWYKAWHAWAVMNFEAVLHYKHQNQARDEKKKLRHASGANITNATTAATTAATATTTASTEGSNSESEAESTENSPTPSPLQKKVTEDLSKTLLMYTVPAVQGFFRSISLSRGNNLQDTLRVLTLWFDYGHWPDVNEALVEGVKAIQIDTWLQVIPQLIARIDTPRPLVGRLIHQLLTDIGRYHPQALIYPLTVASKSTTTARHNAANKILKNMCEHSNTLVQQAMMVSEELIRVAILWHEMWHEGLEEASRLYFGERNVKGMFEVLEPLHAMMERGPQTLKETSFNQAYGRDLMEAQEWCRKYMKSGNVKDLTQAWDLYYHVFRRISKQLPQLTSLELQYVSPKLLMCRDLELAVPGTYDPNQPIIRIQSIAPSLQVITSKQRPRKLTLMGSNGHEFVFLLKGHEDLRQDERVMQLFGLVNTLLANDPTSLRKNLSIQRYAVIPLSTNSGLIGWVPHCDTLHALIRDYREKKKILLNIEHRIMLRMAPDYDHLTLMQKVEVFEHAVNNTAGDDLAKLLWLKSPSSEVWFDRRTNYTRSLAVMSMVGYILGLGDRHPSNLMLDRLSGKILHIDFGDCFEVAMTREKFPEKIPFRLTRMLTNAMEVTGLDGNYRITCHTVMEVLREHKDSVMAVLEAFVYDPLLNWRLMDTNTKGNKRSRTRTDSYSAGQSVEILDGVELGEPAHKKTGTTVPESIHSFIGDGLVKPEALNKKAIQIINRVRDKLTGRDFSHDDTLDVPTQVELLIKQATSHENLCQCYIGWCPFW
Method: The compounds described herein can be tested against recombinant mTOR (Invitrogen) in an assay containing 50 mM HEPES, pH 7.5, 1 mM EGTA, 10 mM MgCl2, 2.5 mM, 0.01% Tween, 10 μM ATP (2.5 μCi of μ-32P-ATP), and 3 μg/mL BSA. Rat recombinant PHAS-1/4EBP1 (Calbiochem; 2 mg/mL) is used as a substrate. Reactions are terminated by spotting onto nitrocellulose, which is washed with 1M NaCl/1% phosphoric acid (approximately 6 times, 5-10 minutes each). Sheets are dried and the transferred radioactivity quantitated by phosphorimaging.
For instance, one can use Invitrogen's LanthaScreen™ Kinase assay to test the inhibitors of mTOR disclosed herein. This assay is a time resolved FRET platform that measures the phosphorylation of GFP labeled 4EBP1 by mTOR kinase. The kinase reaction is performed in a white 384 well microtitre plate. The total reaction volume is 20 ul per well and the reaction buffer composition is 50 mM HEPES pH7.5, 0.01% Polysorbate 20, 1 mM EGTA, 10 mM MnCl2, and 2 mM DTT. In the first step, each well receives 2 ul of test compound in 20% dimethylsulphoxide resulting in a 2% DMSO final concentration. Next, 8 ul of mTOR diluted in reaction buffer is added per well for a 60 ng/ml final concentration. To start the reaction, 10 ul of an ATP/GFP-4EBP1 mixture (diluted in reaction buffer) is added per well for a final concentration of 10 μM ATP and 0.5 μM GFP-4EBP1. The plate is sealed and incubated for 1 hour at room temperature. […] The plate is sealed, incubated for 1 hour at room temperature, and then read on a plate reader set up for LanthaScreen™ TR-FRET. Data is analyzed and IC50s are generated using GraphPad Prism 5.

Sequence of PI3K δ (O00329 whole entry): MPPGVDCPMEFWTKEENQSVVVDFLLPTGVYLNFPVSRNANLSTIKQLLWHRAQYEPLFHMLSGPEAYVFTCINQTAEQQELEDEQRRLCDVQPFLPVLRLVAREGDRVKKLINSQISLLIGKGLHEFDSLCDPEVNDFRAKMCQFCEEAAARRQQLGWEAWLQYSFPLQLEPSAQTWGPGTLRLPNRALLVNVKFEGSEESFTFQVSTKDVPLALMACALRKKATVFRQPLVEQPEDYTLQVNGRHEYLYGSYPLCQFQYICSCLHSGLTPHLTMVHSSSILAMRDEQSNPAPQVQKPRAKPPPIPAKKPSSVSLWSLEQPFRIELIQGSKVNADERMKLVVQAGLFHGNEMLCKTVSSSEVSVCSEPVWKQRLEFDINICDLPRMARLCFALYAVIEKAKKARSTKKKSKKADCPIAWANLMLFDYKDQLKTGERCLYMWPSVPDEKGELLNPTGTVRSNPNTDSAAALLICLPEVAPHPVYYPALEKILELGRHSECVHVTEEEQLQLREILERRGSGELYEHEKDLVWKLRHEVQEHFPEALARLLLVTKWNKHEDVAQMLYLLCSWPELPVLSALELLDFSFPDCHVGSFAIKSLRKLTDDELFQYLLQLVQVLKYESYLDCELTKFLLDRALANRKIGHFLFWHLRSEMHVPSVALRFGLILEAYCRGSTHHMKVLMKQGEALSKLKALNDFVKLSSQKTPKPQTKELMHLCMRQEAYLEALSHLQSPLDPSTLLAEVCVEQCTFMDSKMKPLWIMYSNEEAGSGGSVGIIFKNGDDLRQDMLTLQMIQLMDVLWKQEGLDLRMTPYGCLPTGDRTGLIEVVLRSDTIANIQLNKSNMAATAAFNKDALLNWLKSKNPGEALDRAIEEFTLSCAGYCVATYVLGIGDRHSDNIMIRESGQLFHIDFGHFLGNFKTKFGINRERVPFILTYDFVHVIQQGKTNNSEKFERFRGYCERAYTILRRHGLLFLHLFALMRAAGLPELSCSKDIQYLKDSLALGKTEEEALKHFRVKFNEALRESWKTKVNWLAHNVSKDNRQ
Sequence of PI3K δ (P27986 whole entry partner): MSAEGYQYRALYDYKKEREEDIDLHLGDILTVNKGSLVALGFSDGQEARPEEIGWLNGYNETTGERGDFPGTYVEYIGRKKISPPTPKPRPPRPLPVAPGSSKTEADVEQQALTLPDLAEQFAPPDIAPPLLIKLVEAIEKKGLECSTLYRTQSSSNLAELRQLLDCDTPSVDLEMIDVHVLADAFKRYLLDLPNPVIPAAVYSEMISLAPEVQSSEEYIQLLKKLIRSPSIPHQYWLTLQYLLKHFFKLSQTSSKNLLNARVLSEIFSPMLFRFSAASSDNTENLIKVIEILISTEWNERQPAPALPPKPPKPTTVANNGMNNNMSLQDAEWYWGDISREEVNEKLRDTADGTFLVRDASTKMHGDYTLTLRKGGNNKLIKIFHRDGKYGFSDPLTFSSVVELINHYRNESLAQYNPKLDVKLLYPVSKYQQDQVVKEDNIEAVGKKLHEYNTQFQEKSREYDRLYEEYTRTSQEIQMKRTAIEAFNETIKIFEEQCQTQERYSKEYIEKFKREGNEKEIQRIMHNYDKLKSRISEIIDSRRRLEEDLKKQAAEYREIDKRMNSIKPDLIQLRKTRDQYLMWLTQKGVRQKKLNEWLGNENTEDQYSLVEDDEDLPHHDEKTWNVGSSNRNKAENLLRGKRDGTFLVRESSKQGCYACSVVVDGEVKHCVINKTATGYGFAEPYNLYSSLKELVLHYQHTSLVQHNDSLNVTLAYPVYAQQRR
Sequence of PI3K β (P42338 whole entry): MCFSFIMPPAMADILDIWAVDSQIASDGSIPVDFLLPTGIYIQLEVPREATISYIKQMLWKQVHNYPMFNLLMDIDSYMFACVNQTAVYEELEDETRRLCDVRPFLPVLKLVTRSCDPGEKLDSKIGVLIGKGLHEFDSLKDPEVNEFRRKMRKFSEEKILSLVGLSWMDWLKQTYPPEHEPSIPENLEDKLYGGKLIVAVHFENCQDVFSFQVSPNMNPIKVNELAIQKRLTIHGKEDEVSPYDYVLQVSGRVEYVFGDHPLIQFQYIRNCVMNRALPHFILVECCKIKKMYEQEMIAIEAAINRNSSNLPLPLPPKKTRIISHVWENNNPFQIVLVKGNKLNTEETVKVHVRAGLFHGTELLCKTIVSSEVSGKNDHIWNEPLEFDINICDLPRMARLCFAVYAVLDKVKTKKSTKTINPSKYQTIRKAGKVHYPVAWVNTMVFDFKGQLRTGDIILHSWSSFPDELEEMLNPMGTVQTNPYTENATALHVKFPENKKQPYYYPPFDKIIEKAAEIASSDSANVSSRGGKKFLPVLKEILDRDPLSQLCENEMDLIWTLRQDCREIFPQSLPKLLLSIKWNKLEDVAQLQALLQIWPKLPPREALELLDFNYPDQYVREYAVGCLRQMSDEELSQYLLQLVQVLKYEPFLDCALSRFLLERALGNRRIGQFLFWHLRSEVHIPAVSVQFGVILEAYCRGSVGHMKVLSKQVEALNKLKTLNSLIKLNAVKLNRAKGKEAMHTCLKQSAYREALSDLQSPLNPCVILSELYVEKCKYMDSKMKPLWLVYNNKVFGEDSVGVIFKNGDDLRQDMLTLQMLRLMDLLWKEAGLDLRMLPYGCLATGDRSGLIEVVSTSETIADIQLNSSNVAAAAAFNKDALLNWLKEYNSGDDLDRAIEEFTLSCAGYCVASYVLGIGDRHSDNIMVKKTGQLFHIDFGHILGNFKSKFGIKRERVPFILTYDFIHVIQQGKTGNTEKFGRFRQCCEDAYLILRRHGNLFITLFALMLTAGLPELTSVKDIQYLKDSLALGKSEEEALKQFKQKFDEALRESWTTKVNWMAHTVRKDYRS
Sequence of PI3K β (P27986 whole entry partner): as the sequence (P27986 whole entry partner) above

Row | SMILES | IC50 (PI3K δ) | IC50 (PI3K β) | IC50 (PI3K α) | IC50 (PI3K γ) | IC50 (mTORC)
1 | Nc1nc2cc(-c3ccc4ncc(C(=O)N5CCOCC5)n4c3)ccc2o1 | < 10000 nM | < 10000 nM | < 100 nM | < 10000 nM | < 10000 nM
2 | Cc1nc2ccc(-c3ccc4oc(N)nc4c3)nn2c1-c1ccncc1 | > 10000 nM | < 1000 nM | < 100 nM | < 100 nM | < 1000 nM
3 | CC(=O)N1CCC(Nc2ncnc3ccc(-c4ccc5oc(N)nc5c4)cc23)CC1 | < 1000 nM | < 10000 nM | < 100 nM | < 100 nM | < 1000 nM
4 | Nc1nc2cc(-c3ccn4ncc(-c5ccncc5)c4n3)ccc2o1 | < 100 nM | < 100 nM | < 100 nM | < 100 nM | < 100 nM
5 | Nc1nc2cc(-c3ccc4ncc(N5CCOCC5)nc4c3)ccc2o1 | > 10000 nM | < 1000 nM | < 100 nM | < 100 nM | < 10000 nM
6 | Nc1nc2cc(-c3ccc4ncc(=O)[nH]c4c3)ccc2o1 | > 10000 nM | < 1000 nM | < 100 nM | < 100 nM | < 1000 nM
7 | CC(C)N1CCC(n2cnc3ccc(-c4ccc5oc(N)nc5c4)cc3c2=O)CC1 | > 10000 nM | < 10000 nM | < 100 nM | < 10000 nM | < 10000 nM
8 | Nc1nc2cc(-c3ccc4ncc(-c5cccnc5)nc4c3)ccc2o1 | > 10000 nM | > 10000 nM | < 100 nM | < 1000 nM | < 10000 nM
9 | N#Cc1cnc2ccc(-c3ccc4oc(N)nc4c3)cc2c1 | > 10000 nM | > 10000 nM | < 1000 nM | < 1000 nM | < 10000 nM
10 | CCOC(=O)N1CCN(c2cnc3ccc(-c4ccc5oc(N)nc5c4)cc3n2)CC1 | < 10000 nM | < 10000 nM | < 100 nM | < 10000 nM | < 10000 nM
11 | CS(=O)(=O)N1CCN(Cc2cc3nc(-c4ccc5oc(N)nc5c4)nc(N4CCOCC4)c3s2)CC1 | < 1000 nM | < 1000 nM | < 100 nM | < 100 nM | < 1000 nM
12 | Nc1nc2cc(-c3ccc4ncc(N5CCNC(=O)C5)nc4c3)ccc2o1 | > 10000 nM | < 1000 nM | < 100 nM | < 1000 nM | > 10000 nM
13 | CC(=O)N1CCC(N(C)c2ncnc3ccc(-c4ccc5oc(N)nc5c4)cc23)CC1 | < 1000 nM | < 1000 nM | < 100 nM | < 1000 nM | > 10000 nM
14 | CN1CC(C(=O)N2CCN(c3cnc4ccc(-c5ccc6oc(N)nc6c5)cc4n3)CC2)C1 | < 1000 nM | < 1000 nM | < 100 nM | < 1000 nM | > 10000 nM
15 | Nc1nc2cc(-c3ccc4ncc(N5CCC(N6CCOCC6)CC5)nc4c3)ccc2o1 | < 1000 nM | < 1000 nM | < 100 nM | < 1000 nM | > 10000 nM
16 | Nc1nc2cc(-c3ccc4ncc(N5CC(N6CCOCC6)C5)nc4n3)ccc2o1 | < 10000 nM | > 10000 nM | < 100 nM | < 10000 nM | < 10000 nM
17 | C[C@H]1CN(C2CN(c3cnc4ccc(-c5ccc6oc(N)nc6c5)nc4n3)C2)CCN1 | < 10000 nM | > 10000 nM | < 100 nM | < 10000 nM | < 10000 nM
18 | Nc1nc2cc(-c3ccc4ncc(N5C6CCC5COC6)nc4n3)ccc2o1 | > 10000 nM | > 10000 nM | < 100 nM | < 100 nM | > 10000 nM
19 | Nc1nc2cc(-c3ccc4ncc(N5CC(N6CCN(CC7CC7)CC6)C5)nc4n3)ccc2o1 | < 10000 nM | < 10000 nM | < 100 nM | < 10000 nM | > 10000 nM
20 | CC(C)(N)C(=O)N1CCN(c2cnc3ccc(-c4ccc5oc(N)nc5c4)nc3n2)CC1 | < 10000 nM | < 10000 nM | < 100 nM | < 10000 nM | > 10000 nM
21 | Nc1nc2cc(-c3ccc4ncc(N5CCN(C(=O)C6(N)CC6)CC5)nc4n3)ccc2o1 | < 10000 nM | < 10000 nM | < 100 nM | < 100 nM | < 10000 nM
22 | CC(C)N1CCN(c2cnc3ccc(-c4ccc5oc(N)nc5c4)nc3c2)CC1 | < 1000 nM | < 1000 nM | < 100 nM | < 1000 nM | > 10000 nM
23 | Nc1nc2cc(-c3ccc4ncc(N5CC(N6CCN(CCO)CC6)C5)nc4n3)ccc2o1 | < 10000 nM | < 10000 nM | < 100 nM | < 10000 nM | > 10000 nM
24 | C[C@H]1CN(c2cnc3ccc(-c4ccc5oc(N)nc5c4)nc3c2)CCN1 | < 10000 nM | < 100 nM | < 100 nM | < 1000 nM | > 10000 nM
25 | Cc1nccn1C1CN(c2cnc3ccc(-c4ccc5oc(N)nc5c4)nc3n2)C1 | < 10000 nM | < 10000 nM | < 100 nM | < 10000 nM | > 10000 nM

Row | SMILES | IC50 (PI3K δ) | IC50 (PI3K β) | IC50 (PI3K α) | IC50 (PI3K γ) | IC50 (mTORC)
26 | CC1(C)CN(C2CN(c3cnc4ccc(-c5ccc6oc(N)nc6c5)nc4n3)C2)CCN1 | < 1000 nM | < 10000 nM | < 100 nM | < 10000 nM | > 10000 nM
27 | Nc1nc2cc(-c3ccc4ncc(N5CC(N6CCOCC6)C5)cc4n3)ccc2o1 | < 10000 nM | < 10000 nM | < 100 nM | < 1000 nM | > 10000 nM
28 | C[C@H]1CN(C2CN(c3cnc4ccc(-c5ccc6oc(N)nc6c5)nc4c3)C2)CCN1 | < 1000 nM | < 10000 nM | < 100 nM | < 10000 nM | > 10000 nM
29 | C[C@H]1CN(C2CN(c3cnc4ccc(-c5ccc6oc(N)nc6c5)nc4c3)C2)CCN1C | < 1000 nM | < 10000 nM | < 100 nM | < 10000 nM | > 10000 nM
30 | C[C@@H]1CN(C2CN(c3cnc4ccc(-c5ccc6oc(N)nc6c5)nc4c3)C2)CCN1 | < 1000 nM | < 10000 nM | < 100 nM | < 1000 nM | > 10000 nM
31 | C[C@@H]1CN(C2CN(c3cnc4ccc(-c5ccc6oc(N)nc6c5)nc4c3)C2)CCN1C | < 1000 nM | < 10000 nM | < 100 nM | – | > 10000 nM
32 | CC1(C)CN(C2CN(c3cnc4ccc(-c5ccc6oc(N)nc6c5)nc4c3)C2)CCN1 | < 1000 nM | < 10000 nM | < 100 nM | < 1000 nM | > 10000 nM
33 | Nc1nc2cc(-c3ccc4ncc(N5CC(N6CCN(CC7CC7)CC6)C5)cc4n3)ccc2o1 | < 1000 nM | < 10000 nM | < 100 nM | < 10000 nM | > 10000 nM
34 | C[C@H]1COCCN1C1CN(c2cnc3ccc(-c4ccc5oc(N)nc5c4)nc3n2)C1 | < 10000 nM | > 10000 nM | < 100 nM | – | > 10000 nM
35 | Cc1nccn1C1CN(c2cnc3ccc(-c4ccc5oc(N)nc5c4)nc3c2)C1 | < 1000 nM | < 10000 nM | < 100 nM | < 100 nM | > 10000 nM
36 | CN1CCN(C2CN(c3cnc4ccc(-c5ccc6oc(N)nc6c5)nc4c3)C2)CC1=O | < 1000 nM | < 10000 nM | < 100 nM | < 100 nM | < 10000 nM
37 | Nc1nc2cc(-c3ccc4ncc(N5CC(N6CCN(CCO)CC6)C5)cc4n3)ccc2o1 | < 1000 nM | < 10000 nM | < 100 nM | < 1000 nM | > 10000 nM
38 | CN1CCN(C2CN(c3cnc4ccc(-c5ccc6oc(N)nc6c5)nc4n3)C2)CC1 | < 1000 nM | < 10000 nM | < 100 nM | > 10000 nM | > 10000 nM
39 | CCN1CCN(C2CN(c3cnc4ccc(-c5ccc6oc(N)nc6c5)nc4n3)C2)CC1 | < 10000 nM | < 10000 nM | < 100 nM | < 10000 nM | < 10000 nM
40 | CN1CC2CN(c3cnc4ccc(-c5ccc6oc(N)nc6c5)nc4n3)CC2C1 (stereo not shown) | < 1000 nM | < 1000 nM | < 100 nM | < 10000 nM | > 10000 nM
41 | CC(=O)Nc1nc2ccc(-c3ccc4nccc(-c5ccncc5)c4c3)cc2s1 [Compound 2] | > 10000 nM | > 10000 nM | < 1000 nM | < 1000 nM | > 10000 nM
42 | Nc1ccc2cc(-c3ccc4nccc(-c5ccncc5)c4c3)ccc2n1 [Compound 5] | < 10000 nM | > 10000 nM | < 1000 nM | < 1000 nM | < 1000 nM
43 | Cn1c(=O)n(-c2ccc(C(C)(C)C#N)cc2)c2c3cc(-c4ccc5oc(N)nc5c4)ccc3ncc21 [Compound 7] | < 100 nM | < 100 nM | < 100 nM | < 100 nM | < 100 nM
44 | Nc1nc2cccc(-c3ccc4nccc(-c5ccncc5)c4c3)c2o1 [Compound 15] | < 1000 nM | < 100 nM | < 100 nM | < 1000 nM | < 100 nM
45 | Nc1nc2cc(-c3ccc4ncnc(OC5CCOCC5)c4c3)ccc2o1 [Compound 47] | < 1000 nM | < 1000 nM | < 100 nM | < 1000 nM | < 100 nM
46 | Nc1nc2cc(-c3ccc4ncc(-c5ccc6nc(N)oc6c5)n4c3)ccc2o1 [Compound 50] | < 10000 nM | – | < 100 nM | < 100 nM | > 10000 nM
47 | Nc1nc2cc(-c3ccc4ncc(-c5ccnc(N6CCOCC6)c5)n4c3)ccc2o1 [Compound 52] | < 100 nM | – | < 100 nM | < 100 nM | < 10000 nM
48 | CN(C)CC(=O)N1CCN(c2cnc3ccc(-c4ccc5oc(N)nc5c4)cc3n2)CC1 [drawing 329] | < 1000 nM | < 1000 nM | < 100 nM | < 1000 nM | > 10000 nM
49 | Nc1nc2cc(-c3ccc4ncc(N5CC(C(=O)N6CCOCC6)C5)nc4c3)ccc2o1 [drawing 359] | < 1000 nM | < 1000 nM | < 100 nM | < 1000 nM | < 10000 nM

— US9682141B2, “Combination of kinase inhibitors and uses thereof” (INTELLIKINE LLC, priority 2011, dated 2017)
